Data reported in paper PMC11369081, “Molecular mechanism of prolactin-releasing peptide recognition and signaling via its G protein-coupled receptor” (Cell Discovery, 2024).
Peptide text beside a SMILES is read from it.

Experiments:
Assay type in all cases: cell-based
PrRPR WT = target: T1, PrRPR WT (Homo sapiens, UniProt P49683); test: BRET2 Gq dissociation, WT; conditions: WT (reference for normalisation), Gq-coupling, AD293 cells; n = 3
T1 construct: expressed in transfected cells; host or cells: AD293 cells
T1 sequence (P49683 1-370): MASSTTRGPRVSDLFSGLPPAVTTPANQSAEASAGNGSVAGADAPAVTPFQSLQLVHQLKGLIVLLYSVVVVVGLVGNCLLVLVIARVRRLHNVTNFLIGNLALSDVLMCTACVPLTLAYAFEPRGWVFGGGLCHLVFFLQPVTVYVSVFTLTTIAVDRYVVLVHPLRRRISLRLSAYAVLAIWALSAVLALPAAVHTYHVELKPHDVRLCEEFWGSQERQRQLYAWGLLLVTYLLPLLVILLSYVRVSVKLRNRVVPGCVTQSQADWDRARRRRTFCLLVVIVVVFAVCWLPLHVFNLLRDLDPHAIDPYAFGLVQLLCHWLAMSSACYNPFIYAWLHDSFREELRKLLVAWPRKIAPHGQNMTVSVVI
Procedure: (§1) AD293 cells (Agilent) were propagated in Dulbecco’s Modified Eagle Medium (DMEM, Thermo Fisher Scientific), enriched with 10% fetal bovine serum (FBS, Thermo Fisher Scientific), and maintained at 37 °C in a 5% CO2 environment. Cells were then seeded in 6-well dishes at a density of 130,000–150,000 cells per mL and allowed to incubate overnight. On the next day, cells were transfected with plasmids at a 1:1:1:1 ratio for receptor:Gα-RLuc8:Gβ:Gγ-GFP2[52]. PEI MAX 40 K (BIOHUB) was utilized to form complex with the plasmids at a ratio of 3 µL PEI per µg of plasmids, in OptiMEM (Gibco-Thermo Fisher Scientific) at a concentration of 10 ng plasmids per µL OptiMEM. After 24 h of incubation, the culture was harvested by centrifugation with PBS. The cell suspension was then allocated into a white 384-well plate at a volume of 30 µL per well, followed by the addition of 10 µL of freshly prepared 50 µM coelenterazine 400a (Yeasen). […] Plates were subsequently read in a BioTek Synergy H1 microplate reader (BioTek) equipped with 395 nm (RLuc8-coelenterazine 400a) and 510 nm (GFP2) emission filters. BRET2 ratios were calculated as the ratio of the GFP2 emission to RLuc8 emission. […]
(§2) Supplementary Fig. S4 | Effects of mutations in the ligand-binding pocket and G protein intereface of Gq coupled PrRPR by BRET2 assay. […] BRET2 assay signals were measured after stimulation with PrRP20. […]

PrRPR L210A = target: T2, PrRPR L210A (Homo sapiens, UniProt P49683, L210A); test: BRET2 Gq dissociation, L210A; conditions: L210A (ECL2), Gq-coupling, AD293 cells; mean ± S.E.M., n = 3; P <0.0001 vs WT; read-out: BRET2 pEC50 (converted)
T2 construct: expressed in transfected cells; host or cells: AD293 cells
Procedure: as §1, §2

PrRPR F313A = target: T3, PrRPR F313A (Homo sapiens, UniProt P49683, F313A); test: BRET2 Gq dissociation, F313A; conditions: F313A (7.31), Gq-coupling, AD293 cells; mean ± S.E.M., n = 3; P 0.0012 vs WT; read-out: BRET2 pEC50 (converted)
T3 construct: Flag; expressed in transfected cells; host or cells: AD293 cells
Procedure: as §1, §2

PrRPR W127A = target: T4, PrRPR W127A (Homo sapiens, UniProt P49683, W127A); test: BRET2 Gi dissociation, W127A; conditions: W127A (23.50), Gi-coupling, AD293 cells; mean ± S.E.M., n = 3; P <0.0001 vs WT; read-out: BRET2 pEC50 (converted)
T4 construct: expressed in transfected cells; host or cells: AD293 cells
Procedure: (§3) AD293 cells (Agilent) were propagated in Dulbecco’s Modified Eagle Medium (DMEM, Thermo Fisher Scientific), enriched with 10% fetal bovine serum (FBS, Thermo Fisher Scientific), and maintained at 37 °C in a 5% CO2 environment. Cells were then seeded in 6-well dishes at a density of 130,000–150,000 cells per mL and allowed to incubate overnight. On the next day, cells were transfected with plasmids at a 1:1:1:1 ratio for receptor:Gα-RLuc8:Gβ:Gγ-GFP2[52]. PEI MAX 40 K (BIOHUB) was utilized to form complex with the plasmids at a ratio of 3 µL PEI per µg of plasmids, in OptiMEM (Gibco-Thermo Fisher Scientific) at a concentration of 10 ng plasmids per µL OptiMEM. After 24 h of incubation, the culture was harvested by centrifugation with PBS. The cell suspension was then allocated into a white 384-well plate at a volume of 30 µL per well, followed by the addition of 10 µL of freshly prepared 50 µM coelenterazine 400a (Yeasen). Following a 15-min equilibration period, cells were treated with 10 µL of ligand for an additional 5 min. Plates were subsequently read in a BioTek Synergy H1 microplate reader (BioTek) equipped with 395 nm (RLuc8-coelenterazine 400a) and 510 nm (GFP2) emission filters. BRET2 ratios were calculated as the ratio of the GFP2 emission to RLuc8 emission. Data were normalized to the baseline response of the ligand. […]

PrRPR L229A = target: T5, PrRPR L229A (Homo sapiens, UniProt P49683, L229A); test: BRET2 Gi dissociation, L229A; conditions: L229A (5.42), Gi-coupling, AD293 cells; mean ± S.E.M., n = 3; P <0.0001 vs WT; read-out: BRET2 pEC50 (converted)
T5 construct: Flag; expressed in transfected cells; host or cells: AD293 cells
Procedure: as §3

PrRPR L294A = target: T6, PrRPR L294A (Homo sapiens, UniProt P49683, L294A); test: BRET2 Gi dissociation, L294A; conditions: L294A (6.51), Gi-coupling, AD293 cells; mean ± S.E.M., n = 3; P 0.2845 vs WT; read-out: BRET2 pEC50 (converted)
T6 construct: Flag; expressed in transfected cells; host or cells: AD293 cells
Procedure: as §3

PrRPR N298A = target: T7, PrRPR N298A (Homo sapiens, UniProt P49683, N298A); test: BRET2 Gi dissociation, N298A; conditions: N298A (6.55), Gi-coupling, AD293 cells; mean ± S.E.M., n = 3; P 0.0022 vs WT; read-out: BRET2 pEC50 (converted)
T7 construct: Flag; expressed in transfected cells; host or cells: AD293 cells
Procedure: as §3

T5 sequence (P49683 whole entry L229A): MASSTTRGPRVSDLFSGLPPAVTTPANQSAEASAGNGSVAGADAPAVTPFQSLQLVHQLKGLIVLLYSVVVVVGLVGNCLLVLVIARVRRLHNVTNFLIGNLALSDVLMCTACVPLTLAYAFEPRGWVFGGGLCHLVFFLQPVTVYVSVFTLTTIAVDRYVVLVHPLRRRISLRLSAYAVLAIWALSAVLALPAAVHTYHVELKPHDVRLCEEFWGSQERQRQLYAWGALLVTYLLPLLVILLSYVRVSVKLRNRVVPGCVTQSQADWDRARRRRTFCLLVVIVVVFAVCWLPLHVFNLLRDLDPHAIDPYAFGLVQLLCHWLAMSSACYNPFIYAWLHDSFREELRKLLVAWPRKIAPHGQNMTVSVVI
T4 sequence (P49683 whole entry W127A): as the sequence (P49683 whole entry L229A) above, with W127A, A229L counted along it
T6 sequence (P49683 whole entry L294A): as the sequence (P49683 whole entry L229A) above, with A229L, L294A counted along it
T2 sequence (P49683 whole entry L210A): as the sequence (P49683 whole entry L229A) above, with L210A, A229L counted along it
T7 sequence (P49683 whole entry N298A): as the sequence (P49683 whole entry L229A) above, with A229L, N298A counted along it
T3 sequence (P49683 whole entry F313A): as the sequence (P49683 whole entry L229A) above, with A229L, F313A counted along it

BRET2 span (PrRPR WT): 100.00 %WT
EC50 (PrRPR L210A): 7.08 nM
EC50 (PrRPR F313A): 3.39 nM
EC50 (PrRPR W127A): 490 nM
EC50 (PrRPR L229A): 85.1 nM
EC50 (PrRPR L294A): 3.72 nM
EC50 (PrRPR N298A): 6.31 nM
SMILES: CC[C@H](C)[C@H](NC(=O)CNC(=O)[C@H](CCCNC(=N)N)NC(=O)[C@H](CO)NC(=O)[C@H](C)NC(=O)[C@H](Cc1ccc(O)cc1)NC(=O)[C@H](Cc1c[nH]c2ccccc12)NC(=O)[C@H](C)NC(=O)[C@@H]1CCCN1C(=O)[C@H](CC(N)=O)NC(=O)[C@@H](NC(=O)[C@H](CC(=O)O)NC(=O)[C@@H]1CCCN1C(=O)[C@@H](N)[C@@H](C)O)[C@@H](C)CC)C(=O)N[C@@H](CCCNC(=N)N)C(=O)N1CCC[C@H]1C(=O)N[C@H](C(=O)NCC(=O)N[C@@H](CCCNC(=N)N)C(=O)N[C@@H](Cc1ccccc1)C(N)=O)C(C)C [PrRP20] (H-TPDINPAWYASRGIRPVGRF-NH2)
